Data as given in patent US20230391871A1, “MONOAMINE OXIDASE BLOCKADE THERAPY FOR TREATING CANCER THROUGH REGULATING TUMOR ASSOCIATED MACROPHAGES (TAMS)” (THE REGENTS OF THE UNIVERSITY OF CALIFORNIA, priority 2020, published 2023).

Key:
[1] = system: Maoa WT and Maoa KO BMDMs; test: Maoa WT and Maoa KO BMDM IL-4/IL-13 polarization with H2O2 or tyramine supplement; format: cell-based, mouse
Excerpt: MAO-A breaks down monoamines and generates hydrogen peroxide (H2O2) as a byproduct, thereby increasing reactive oxygen species (ROS) levels in a TAM. b,c, Studying the in vivo ROS levels in TAMs isolated from Mao WT and Mao KO mice bearing B16-OVA tumours (n=4). (b) Experimental design. (c) FACS analyses of ROS levels in Maoa WT and Maoa KO TAMs at day 18. TAMs were gated as the CD45.2^+CD11b^+Ly6G^−Ly6C^−/lowF4/80^+ cells of total tumour-infiltrating immune cells (TIIs). d, FACS analyses of ROS levels in in vitro-cultured Maoa WT and Maoa KO BMDMs, […] IL-4/IL-13 polarization for 24 hours (n=4). NC, no cytokine-treated control BMDMs: IL-4/IL-13, IL-4/IL-13-polarized BMDMs. e-g, Studying the phenotype of IL-4/IL-13-polarized Maoa WT and Maoa KO BMDMs with or without H2O2 treatment (n=3). BMDMs were treated with H2O2 for 30 minutes prior to IL-4/IL-13 polarization for 24 hours. (e) FACS analyses of CD206 expression on BMDMs. (f,g) QPCR analyses of Chi313 (f) and Arg1 (g) mRNA expression in BMDMs. h-j, Studying the phenotype of IL-4/IL-13-polarized Maoa WT and Maoa KO BMDMs with or without tyramine supplement (n=3). BMDMs were treated with tyramine for 30 minutes prior to IL-4/IL-13 polarization for 24 hours. (h) FACS analyses of ROS levels in BMDMs. (i,j) QPCR analyses of Chi3/3 (i) and Arg1 (j) mRNA expression in BMDMs. k,l, Studying the in vivo Stat6 signaling in TAMs isolated from Mao WT and Mao KO mice bearing B16-OVA tumours (combined from 5 mice per group). (k) Experimental design. (l) Western blot analyses of Stat6 phosphorylation in TAMs at day 18. TAMs were FACS sorted as the DAPI^−CD45.2^+CD11b^+Ly6G^−Ly6C^−/lowF4/80^+ cells from total TIIs. m, Western blot analyses of JAK-Stat6 signaling in in vitro-cultured Maoa WT and Maoa KO BMDMs, with or without IL-4/IL-13 polarization and H2O2 treatment. BMDMs were treated with H2O2 for 30 minutes prior to IL-4/IL-13 stimulation for another 30 minutes. Representative of 3 experiments. All data are presented as the mean±SEM. ns, not significant, *P<0.05, **P<0.01, and ***P<0.001, by 2-way ANOVA (d-j) or by Student's t test (c).
[…] BMDMs (denoted as WT and KO, respectively) were treated with H2O2 for 30 minutes followed by IL-4/IL-13 stimulation for another 30 minutes. BMDMs were then collected for FACS analysis. N=4. a, FACS plots showing ROS levels in the indicated BMDMs. b, Quantification of A. Representative of 2 experiments. All data are presented as the mean±SEM. ns, not significant, ***P<0.001, by 2-way ANOVA (b).
(§1) To generate BMDMs, BM cells were collected from femurs and tibias of Maoa WT mice and Maoa KO mice, and were cultured in C10 medium containing with 20% of L929-conditional medium in a 10-cm dish (2×10^6 cells per ml: 12 ml per dish) for 6 days. At day 6, the resulting BMDMs were collected and reseeded in a 6-well plate (1×10^6 cells per ml: 2 ml per well) in C10 medium for 24 hours, in the presence or absence of recombinant murine IL-4 (10 ng/ml) (Peprotech, 200-04) and IL-13 (10 ng/ml) (Peprotech, 200-13) to induce BMDM immunosuppressive polarization.
In some experiments, H2O2 (100 μM) were added to the Maoa WT and Maoa KO BMDM polarization culture 30 minutes prior to adding recombinant murine IL-4 and IL-13. At 30 minutes after IL-4/IL-13 stimulation, BMDMs were collected for WB analysis: at 24 hours after IL-4/IL-13 stimulation, BMDMs were collected for flow cytometry and QPCR analysis.
In some experiments, tyramine (100 μM) (Sigma-Aldrich, T90344) were added to the Maoa WT and Maoa KO BMDM polarization culture 30 minutes prior to adding recombinant murine IL-4 and IL-13. At 24 hours after IL-4/IL-13 stimulation, BMDMs were collected for flow cytometry and QPCR analysis.

[2] = system: wildtype BMDMs (bone marrow-derived macrophages); test: In vitro WT BMDM IL-4/IL-13-induced polarization culture with MAOI treatment; format: cell-based, mouse; settings: IL-4/IL-13-stimulated WT BMDMs, 24 h
Experimental: (a) Experimental design. Wildtype BMDMs were stimulated with IL-4/IL-13 with or without MAOI treatment. MAOIs (monoamine oxidase inhibitors) studied were phenelzine (Phe: 20 μM), clorgyline (Clo: 20 μM), moclobemide (Moc: 200 μM), and pirlindole (Pir: 20 μM). NT, no MAOI treatment. (b) FACS analyses of ROS levels in BMDMs. (c) FACS analyses of CD206 expression on BMDMs. (d,e) QPCR analyses of Chi313 (d) and Arg1 (e) mRNA expression in BMDMs. f-j, Studying the TAM-related cancer immunotherapy potential of MAOI treatment in a B16-OVA melanoma syngeneic mouse tumour model (n=7-8). (f) Experimental design. B6 wildtype mice were treated with clodronate liposomes (Clod) to serve as TAM-depleted experimental mice, or treated with vehicle liposomes (Veh) to serve as TAM-intact control mice. Phe, phenelzine treatment: NT, no phenelzine treatment. (g) Tumour growth. (h) Tumour volume at day 18. (i) FACS analyses of CD206 expression on TAMs of TAM-intact experimental mice. (j) FACS analyses of intracellular Granzyme B production in tumour-infiltrating CD8^+ T cells of all experimental mice. k-o, Studying the cancer therapy potential of MAOI treatment in combination with anti-PD-1 treatment in the B16-OVA melanoma and MC38 colon cancer syngeneic mouse tumour models (n=5). (k) Experimental design. Tumour-bearing mice were treated with anti-PD-1 antibody (aPD-1) or isotype control (Iso), together with or without phenelzine (Phe) treatment. NT, no Phe treatment. (l) B16-OVA tumour growth. (m) B16-OVA tumour volume at day 18. (n) MC38 tumour growth. (o) MC38 tumour volume at day 27. Representative of 3 experiments. All data are presented as the mean±SEM. ns, not significant, *P<0.05, **P<0.01, and ***P<0.001, by I-way ANOVA (b-e, h, j, m, o) or by Student's t test (i).
as §1
In some experiments, MAOIs were added to the Maoa WT BMDM polarization culture 30 minutes prior to adding recombinant murine IL-4 and IL-13, to block MAO-A activity during BMDM polarization. MAOIs studied were phenelzine (Phe, 20 μM) (Sigma-Aldrich), clorgyline (Clo, 20 μM) (Sigma-Aldrich), moclobemide (Moc, 200 μM) (Sigma-Aldrich), and pirlindole (Pir, 20 μM) (R&D Systems). At 24 hours after IL-4/IL-13 stimulation, BMDMs were collected for analysis.
Cells were stained with surface marker antibodies, washed with PBS, then resuspended in pre-warmed PBS (1×10^6 cells/ml/tube) containing 1 μM CM-H2DCFDA (Thermo Fisher Scientific, C6827). After 15 minutes incubation at room temperature, cells were immediately washed with cold PBS followed by flow cytometry analysis. ROS levels were measured by oxidation of the CM-H2DCFDA probes that can be read out as the fluorescence intensity at the FITC/488 channel of a flow cytometer. Single cell RNA sequencing (scRNAseq) scRNASeq was used to analyze the gene expression profiles of TIIs. B16-OVA tumours were harvested from Maoa WT and Maoa KO mice to prepare TII suspensions (10 tumours were combined for each group). TII suspensions were then sorted using a FACSAria II flow cytometer to purify immune cells (gated as DAPI-CD45.2^+ cells). Sorted TIIs were immediately delivered to the Technology Center for Genomics & Bioinformatics (TCGB) facility at UCLA for library construction and sequencing.

[3] = Maoa KO BMDMs, tyramine 100 μM, 30 min before IL-4/IL-13, 24 h
[4] = Maoa WT BMDMs, tyramine 100 μM, 30 min before IL-4/IL-13, 24 h
[5] = MAOI 20 μM added 30 min before cytokines
[6] = IL-4/IL-13-stimulated Maoa WT and KO BMDMs, H2O2 100 μM, 24 h

## NCCc1ccc(O)cc1 [tyramine]
[1]; [3]
  increase of ROS levels in BMDMs: not
  upregulation of Arg1 mRNA expression in BMDMs: not
  upregulation of Chi313 mRNA expression in BMDMs: not
[1]; [4]
  Arg1 mRNA expression in BMDMs: upregulated
  Chi313 mRNA expression in BMDMs: upregulated
  ROS levels in BMDMs: increased

## Cc1ccc2c(c1)c1c3n2CCNC3CCC1 (centres unmarked) [pirlindole]
[2]; [5]
  ROS levels in BMDMs (FACS): efficiently reduced
[2]; MAOI 20 μM
  Arg1 mRNA expression in BMDMs (QPCR): decreased expression
  CD206 expression on BMDMs (FACS): decreased expression
  Chi313 mRNA expression in BMDMs (QPCR): decreased expression
  immunosuppressive polarization of BMDMs: suppressed

## OO [H2O2, hydrogen peroxide]
[1]; IL-4/IL-13-stimulated Maoa WT and KO BMDMs, H2O2 100 μM, 30 min stimulation, to similar levels
  JAK-Stat6 signaling (JAK1, JAK2, JAK3, Stat6 phosphorylation, Western blot): increased
[1]; [6]
  Maoa WT vs KO difference in Arg1 expression: eliminated their differences
  Maoa WT vs KO difference in CD206 expression: eliminated their differences
  Maoa WT vs KO difference in Chi313 expression: eliminated their differences
[1]; IL-4/IL-13-stimulated Maoa WT and KO BMDMs, H2O2 100 μM, to similar levels
  intracellular ROS in BMDMs: elevated

## O=C(NCCN1CCOCC1)c1ccc(Cl)cc1 [mocolobemide, moclobemide]
[2]; MAOI 200 μM added 30 min before cytokines
  ROS levels in BMDMs (FACS): efficiently reduced
[2]; MAOI 200 μM
  Arg1 mRNA expression in BMDMs (QPCR): decreased expression
  CD206 expression on BMDMs (FACS): decreased expression
  Chi313 mRNA expression in BMDMs (QPCR): decreased expression
  immunosuppressive polarization of BMDMs: suppressed

## C#CCN(C)CCCOc1ccc(Cl)cc1Cl [clorgyline]
[2]; [5]
  ROS levels in BMDMs (FACS): efficiently reduced
[2]; MAOI 20 μM
  Arg1 mRNA expression in BMDMs (QPCR): decreased expression
  CD206 expression on BMDMs (FACS): decreased expression
  Chi313 mRNA expression in BMDMs (QPCR): decreased expression
  immunosuppressive polarization of BMDMs: suppressed
